Source: patent US7297700B2, “Bicycloheteroaryl compounds as P2X7 modulators and uses thereof” (Renovis, Inc., priority 2005, dated 2007)

The molecules below were run on IL-1β release from THP-1 cells (assay: IL-1β Release Assay (Alternate Method), THP-1 cells). Details: at 0.3 μM; THP-1 cells.
Assay type: cell-based, human
Summary of the method: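 THP-1 cells differentiated 16 h with 100 ng/mL LPS plus 100 ng/mL IFN-γ, reprimed 2 h with 100 ng/mL LPS, pretreated 30 min with compound, then challenged 45 min with 250 uM BzATP (final). Supernatant IL-1β quantified by ELISA; percent inhibition from background-adjusted levels versus untreated cells.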
`O=C(CC12CC3CC(CC(C3)C1)C2)Nc1ncnc2c1CCN(Cc1cc(C(F)(F)F)ccc1F)C2` [Compound 109] was tested, and the IL-1β % inhibition was “++ (compound exhibited 25-50% inhibition at 0.3 μM)”. `Cc1ccc(CN2CCc3c(ncnc3NC(=O)CC34CC5CC(CC(C5)C3)C4)C2)cc1F` [Compound 85] was tested, and the IL-1β % inhibition was “+ (compound exhibited 0-25% inhibition at 0.3 μM)”. For `O=C(CC12CC3CC(CC(C3)C1)C2)Nc1ncnc2c1CCN(S(=O)(=O)Cc1ccccc1)C2` [Compound 153], the IL-1β % inhibition was “++++ (compound exhibited 75% or greater inhibition at 0.3 μM)”. With `CC(=O)N1CCc2c(ncnc2NC(=O)CC23CC4CC(CC(C4)C2)C3)C1` [Compound 219] the IL-1β % inhibition was “+ (compound exhibited 0-25% inhibition at 0.3 μM)”. For `O=C(CC12CC3CC(CC(C3)C1)C2)Nc1ncnc2c1CCN(C(=O)c1cccc(C(F)(F)F)c1)C2` [Compound 233], the IL-1β % inhibition was “++++ (compound exhibited 75% or greater inhibition at 0.3 μM)”. For `COCCC(=O)N1CCc2c(ncnc2NC(=O)CC23CC4CC(CC(C4)C2)C3)C1` [Compound 307], the IL-1β % inhibition was “++ (compound exhibited 25-50% inhibition at 0.3 μM)”. With `O=C(CC12CC3CC(CC(C3)C1)C2)Nc1ncnc2c1CCN(Cc1ccc(F)cc1Cl)C2` [Compound 326] the IL-1β % inhibition was “++ (compound exhibited 25-50% inhibition at 0.3 μM)”. In the case of `O=C(CC12CC3CC(CC(C3)C1)C2)Nc1ncnc2c1CCN(S(=O)(=O)Cc1cccc(C(F)(F)F)c1)C2` [Compound 187], the IL-1β % inhibition is reported as “++++ (compound exhibited 75% or greater inhibition at 0.3 μM)”. With `CCN1CCc2c(ncnc2NC(=O)CC23CC4CC(CC(C4)C2)C3)C1` [Compound 8] the IL-1β % inhibition was “+ (compound exhibited 0-25% inhibition at 0.3 μM)”. `O=C(CC12CC3CC(CC(C3)C1)C2)Nc1ncnc2c1CCN(Cc1ccncc1)C2` [Compound 43] was tested, and the IL-1β % inhibition was “+ (compound exhibited 0-25% inhibition at 0.3 μM)”. `O=C(CC12CC3CC(CC(C3)C1)C2)Nc1ncnc2c1CCN(Cc1cccc(OCCO)c1)C2` [Compound 101] was tested, and the IL-1β % inhibition was “++ (compound exhibited 25-50% inhibition at 0.3 μM)”. In the case of `Cc1cc(S(=O)(=O)N2CCc3c(ncnc3NC(=O)CC34CC5CC(CC(C5)C3)C4)C2)c(C(F)(F)F)o1` [Compound 159], the IL-1β % inhibition is reported as “+ (compound exhibited 0-25% inhibition at 0.3 μM)”. In the case of `O=C(CC12CC3CC(CC(C3)C1)C2)Nc1ncnc2c1CCN(Cc1cccc(Cl)c1)C2` [Compound 34], the IL-1β % inhibition is reported as “+ (compound exhibited 0-25% inhibition at 0.3 μM)”. For `O=C(CC12CC3CC(CC(C3)C1)C2)Nc1ncnc2c1CCN(C(=O)C(c1ccccc1)c1ccccc1)C2` [Compound 236], the IL-1β % inhibition was “+++ (compound exhibited 50-75% inhibition at 0.3 μM)”. In the case of `O=C(CC12CC3CC(CC(C3)C1)C2)Nc1ncnc2c1CCN(C(=O)c1ccc3ccccc3c1)C2` [Compound 290], the IL-1β % inhibition is reported as “++++ (compound exhibited 75% or greater inhibition at 0.3 μM)”. For `O=C(CC12CC3CC(CC(C3)C1)C2)Nc1ncnc2c1CCN(Cc1ccccc1C(F)(F)F)C2` [Compound 120], the IL-1β % inhibition was “+ (compound exhibited 0-25% inhibition at 0.3 μM)”. For `CC12CC3CC(C)(C1)CC(CC(=O)Nc1ncnc4c1CCN(S(=O)(=O)Cc1ccccc1)C4)(C3)C2` [Compound 377], the IL-1β % inhibition was “++++ (compound exhibited 75% or greater inhibition at 0.3 μM)”. `O=C(CC12CC3CC(CC(C3)C1)C2)Nc1ncnc2c1CCN(S(=O)(=O)c1ccccc1Cl)C2` [Compound 192] was tested, and the IL-1β % inhibition was “+++ (compound exhibited 50-75% inhibition at 0.3 μM)”. With `COc1ccc(C(=O)N2CCc3c(ncnc3NC(=O)CC34CC5CC(CC(C5)C3)C4)C2)cc1` [Compound 234] the IL-1β % inhibition was “++ (compound exhibited 25-50% inhibition at 0.3 μM)”. For `COc1cc(CN2CCc3c(ncnc3NC(=O)CC34CC5CC(CC(C5)C3)C4)C2)ccc1O` [Compound 117], the IL-1β % inhibition was “+ (compound exhibited 0-25% inhibition at 0.3 μM)”. With `O=C(NCC12CC3CC(CC(C3)C1)C2)c1ncnc2c1CCN(Cc1ccc(F)cc1)C2` [Compound 338] the IL-1β % inhibition was “++++ (compound exhibited 75% or greater inhibition at 0.3 μM)”. For `O=C(CC12CC3CC(CC(C3)C1)C2)Nc1ncnc2c1CCN(Cc1ccc(C(F)(F)F)cc1F)C2` [Compound 110], the IL-1β % inhibition was “+ (compound exhibited 0-25% inhibition at 0.3 μM)”. In the case of `O=C(CC12CC3CC(CC(C3)C1)C2)Nc1ncnc2c1CCN(Cc1ccccc1OC(F)(F)F)C2` [Compound 76], the IL-1β % inhibition is reported as “+ (compound exhibited 0-25% inhibition at 0.3 μM)”. With `CC(C)(C(=O)Nc1ncnc2c1CCN(Cc1ccccc1Cl)C2)C12CC3CC(CC(C3)C1)C2` [Compound 348] the IL-1β % inhibition was “+ (compound exhibited 0-25% inhibition at 0.3 μM)”. For `Cc1ccccc1CN1CCc2c(ncnc2NC(=O)C(C)(C)C23CC4CC(CC(C4)C2)C3)C1` [Compound 349], the IL-1β % inhibition was “+ (compound exhibited 0-25% inhibition at 0.3 μM)”. `COc1ccc(CC(=O)N2CCc3c(ncnc3NC(=O)CC34CC5CC(CC(C5)C3)C4)C2)cc1OC` [Compound 254] was tested, and the IL-1β % inhibition was “+ (compound exhibited 0-25% inhibition at 0.3 μM)”. In the case of `O=C(CC12CC3CC(CC(C3)C1)C2)Nc1ncnc2c1CCN(S(=O)(=O)c1ccc3c(c1)OCCO3)C2` [Compound 200], the IL-1β % inhibition is reported as “+ (compound exhibited 0-25% inhibition at 0.3 μM)”. In the case of `Cc1nc[nH]c1CN1CCc2c(ncnc2NC(=O)CC23CC4CC(CC(C4)C2)C3)C1` [Compound 81], the IL-1β % inhibition is reported as “+++ (compound exhibited 50-75% inhibition at 0.3 μM)”. In the case of `O=C(CC12CC3CC(CC(C3)C1)C2)Nc1ncnc2c1CCN(S(=O)(=O)Cc1cc(Cl)cc(Cl)c1)C2` [Compound 186], the IL-1β % inhibition is reported as “++++ (compound exhibited 75% or greater inhibition at 0.3 μM)”. In the case of `CN1CCc2c(ncnc2NC(=O)CC2CCCCC2)C1` [Compound 26], the IL-1β % inhibition is reported as “+++ (compound exhibited 50-75% inhibition at 0.3 μM)”. In the case of `CC(C)(C(=O)Nc1ncnc2c1CCN(C(=O)C1CCCCC1)C2)C12CC3CC(CC(C3)C1)C2` [Compound 366], the IL-1β % inhibition is reported as “+ (compound exhibited 0-25% inhibition at 0.3 μM)”. In the case of `O=C(CC12CC3CC(CC(C3)C1)C2)Nc1ncnc2c1CCN(S(=O)(=O)c1ccc(Cl)cc1F)C2` [Compound 202], the IL-1β % inhibition is reported as “++ (compound exhibited 25-50% inhibition at 0.3 μM)”. For `O=C(CC12CC3CC(CC(C3)C1)C2)Nc1ncnc2c1CCN(C(=O)C1CC1)C2` [Compound 260], the IL-1β % inhibition was “+++ (compound exhibited 50-75% inhibition at 0.3 μM)”. With `O=C(CC12CC3CC(CC(C3)C1)C2)Nc1ncnc2c1CCN(Cc1ccccc1OC(F)F)C2` [Compound 77] the IL-1β % inhibition was “+ (compound exhibited 0-25% inhibition at 0.3 μM)”.

Same assay, conditions: at 0.3 μM; THP-1 cells, BzATP-stimulated
With `O=C(Cc1ccc(F)cc1)N1CCc2c(ncnc2NC(=O)C23CC4CC(CC(C4)C2)C3)C1` [Compound 413] the IL-1β % inhibition was “++ (compound exhibited 25-50% inhibition at 0.3 μM)”. In the case of `COc1cc(CN2CCc3c(ncnc3NC(=O)C34CC5CC(CC(C5)C3)C4)C2)cc(Br)c1OC` [Compound 594], the IL-1β % inhibition is reported as “+ (compound exhibited 0-25% inhibition at 0.3 μM)”. For `CCCCCN1CCc2c(ncnc2NC(=O)C23CC4CC(CC(C4)C2)C3)C1` [Compound 558], the IL-1β % inhibition was “++ (compound exhibited 25-50% inhibition at 0.3 μM)”. With `O=C(Nc1ncnc2c1CCN(Cc1cccc(Br)c1)C2)C12CC3CC(CC(C3)C1)C2` [Compound 614] the IL-1β % inhibition was “+ (compound exhibited 0-25% inhibition at 0.3 μM)”. In the case of `CCCN1CCc2c(ncnc2NC(=O)C23CC4CC(CC(C4)C2)C3)C1` [Compound 555], the IL-1β % inhibition is reported as “+ (compound exhibited 0-25% inhibition at 0.3 μM)”. In the case of `O=C(c1cccnc1Oc1ccccc1)N1CCc2c(ncnc2NC(=O)C23CC4CC(CC(C4)C2)C3)C1` [Compound 446], the IL-1β % inhibition is reported as “++ (compound exhibited 25-50% inhibition at 0.3 μM)”. For `COc1ccc(C(=O)N2CCc3c(ncnc3NC(=O)C34CC5CC(CC(C5)C3)C4)C2)cc1` [Compound 407], the IL-1β % inhibition was “+ (compound exhibited 0-25% inhibition at 0.3 μM)”. In the case of `Cc1cccc(CN2CCc3c(ncnc3NC(=O)C34CC5CC(CC(C5)C3)C4)C2)c1` [Compound 606], the IL-1β % inhibition is reported as “+ (compound exhibited 0-25% inhibition at 0.3 μM)”. For `N#Cc1ccc(S(=O)(=O)N2CCc3c(ncnc3NC(=O)C34CC5CC(CC(C5)C3)C4)C2)c(Cl)c1` [Compound 500], the IL-1β % inhibition was “+++ (compound exhibited 50-75% inhibition at 0.3 μM)”. In the case of `O=C(Nc1ncnc2c1CCN(S(=O)(=O)c1ccccc1Cl)C2)C12CC3CC(CC(C3)C1)C2` [Compound 525], the IL-1β % inhibition is reported as “+ (compound exhibited 0-25% inhibition at 0.3 μM)”. For `COc1ccc(CN2CCc3c(ncnc3NC(=O)C34CC5CC(CC(C5)C3)C4)C2)cc1` [Compound 562], the IL-1β % inhibition was “+ (compound exhibited 0-25% inhibition at 0.3 μM)”. In the case of `O=C(Nc1ncnc2c1CCN(Cc1ccc(Cl)c(F)c1)C2)C12CC3CC(CC(C3)C1)C2` [Compound 611], the IL-1β % inhibition is reported as “+++ (compound exhibited 50-75% inhibition at 0.3 μM)”. `O=C(Nc1ncnc2c1CCN(Cc1ccncc1)C2)C12CC3CC(CC(C3)C1)C2` [Compound 610] was tested, and the IL-1β % inhibition was “+ (compound exhibited 0-25% inhibition at 0.3 μM)”. For `Cc1nn(C)c(Cl)c1S(=O)(=O)N1CCc2c(ncnc2NC(=O)C23CC4CC(CC(C4)C2)C3)C1` [Compound 495], the IL-1β % inhibition was “++ (compound exhibited 25-50% inhibition at 0.3 μM)”. With `CCS(=O)(=O)N1CCc2c(ncnc2NC(=O)C23CC4CC(CC(C4)C2)C3)C1` [Compound 486] the IL-1β % inhibition was “+ (compound exhibited 0-25% inhibition at 0.3 μM)”. For `CC(C)(C)c1ccc(CN2CCc3c(ncnc3NC(=O)C34CC5CC(CC(C5)C3)C4)C2)cc1` [Compound 572], the IL-1β % inhibition was “++++ (compound exhibited 75% or greater inhibition at 0.3 μM)”. `O=C(Nc1ncnc2c1CCN(S(=O)(=O)Cc1ccc(C(F)(F)F)cc1)C2)C12CC3CC(CC(C3)C1)C2` [Compound 516] was tested, and the IL-1β % inhibition was “++ (compound exhibited 25-50% inhibition at 0.3 μM)”. With `O=C(Nc1ncnc2c1CCN(S(=O)(=O)c1ccc(Oc3ccccn3)cc1)C2)C12CC3CC(CC(C3)C1)C2` [Compound 506] the IL-1β % inhibition was “++++ (compound exhibited 75% or greater inhibition at 0.3 μM)”. With `N#Cc1cc(CN2CCc3c(ncnc3NC(=O)C34CC5CC(CC(C5)C3)C4)C2)ccc1F` [Compound 595] the IL-1β % inhibition was “+ (compound exhibited 0-25% inhibition at 0.3 μM)”. In the case of `O=C(Nc1ncnc2c1CCN(S(=O)(=O)c1ccc3c(c1)OCCO3)C2)C12CC3CC(CC(C3)C1)C2` [Compound 534], the IL-1β % inhibition is reported as “+++ (compound exhibited 50-75% inhibition at 0.3 μM)”.
